The record followed here is patent US20230123334A1, “AMINO LIPID COMPOUND, PREPARATION METHOD THEREFOR, AND APPLICATION THEREOF” (SHENZHEN SHENXIN BIOTECHNOLOGY CO., LTD., priority 2020, published 2023).

Structures are written as SMILES.

In the first data set the test system is Hela cells. Nature of the data set: Transfection of Hela cell line, DNA vectors. The format is cell-based. The note with it: 75 ng plasmid DNA, GFP cells / total cells. Put shortly: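 Amino lipid/DOPE liposomes in sodium acetate pH 5.6 were complexed with 75 ng psin-EGFP-IRES-Puro plasmid for 30 min at room temperature, then mixed with 3-5×10^4 Hela cells in DMEM/10% FBS at 37° C. Hoechst stain after 20-24 h, imaging after a further 20-24 h. Efficiency = GFP-positive cells / total nuclei.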
For `CCCCCCCCCCCCCCCCSc1nc(NCCN2CCN(C)CC2)nc(SCCCCCCCCC)n1` [Compound S9S16D5], the “Absolute DNA transfection efficiency in Hela cells” value stood at 11.7%.

In another data set the test system is HEK293 cells. Nature of the data set: Preliminary screening as DNA vectors, GFP transfection of HEK293 cells. The settings on record: HEK293 cells; lipid/DOPE liposome with 75 ng plasmid DNA (psin-EGFP-IRES-Puro); number of cells expressing GFP divided by total number of nuclei (Hoechst). Type of data set: cell-based. Summed up: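 First, amino lipid and DOPE were vortexed in sodium acetate buffer (pH 5.6) to form liposomes. Next, these were held with 75 ng EGFP plasmid at room temperature for 30 min. Finally, HEK293 cells were added, cultured at 37° C., Hoechst-stained, and GFP+/total nuclei scored by imaging.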
On to `CCCCCCCCCCCCCCCCSc1nc(NCCN2CCN(C)CC2)nc(SCCCCCCCCC)n1` [Compound S9S16D5], for which the “Absolute DNA transfection efficiency in HEK293 cells” value came to 23.5%.

Another data set deals with MCF7 cells. The data set is described as follows: Transfection of MCF7 cell line, DNA vectors. Type of data set: cell-based. On the set-up: concentration or dose not given beside the values. The settings on record: plasmid DNA, GFP cells / total cells. Summed up: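 MCF7 cells in DMEM with fetal bovine serum were transfected in 96-well format. Read-out was the percentage of GFP-fluorescent cells among total cells counted by Hoechst nuclear stain. Lipofectamine2000 served as positive control.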
As to `CCCCCCCCCCCCCCCCSc1nc(NCCN2CCN(C)CC2)nc(SCCCCCCCCC)n1` [Compound S9S16D5], the “Absolute DNA transfection efficiency in MCF7 cells” value is 26.6%.

For a further data set, the system named is MCF7 cells. Nature of the data set: Transfection of MCF7 cell line, mRNA vectors. Type of data set: cell-based. The note with it: 50 ng EGFP mRNA per well. Summed up: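 MCF7 cells in DMEM with fetal bovine serum were transfected with 50 ng EGFP mRNA per well. Read-out was the percentage of GFP-positive cells among total Hoechst-stained nuclei, with Lipofectamine2000 as positive control.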
Regarding `CCCCCCCCCCCCCCCCSc1nc(NCCN2CCN(C)CC2)nc(SCCCCCCCCC)n1` [Compound S9S16D5], the “Absolute mRNA transfection efficiency in MCF7 cells” value worked out at 32.0%.

Test system in a further data set: not listed separately
The data set is described as follows: Encapsulation rate of LNP RNA (Qubit RNA HS Assay kit). The settings on record: LNPs, Formulation Method 1. Type of data set: physicochemical. The protocol:
(§1) The amino lipid compound of the invention was mixed with DOPE, cholesterol and PEG2000-DMG in a molar ratio of 45:10:42.5:2.5, and dissolved in absolute ethanol such that the molar concentration of the amino lipid compound was 0.001-0.01 mmol/L. By using a microinjection pump, the resultant ethanol solution and a sodium acetate solution (50 mM, pH=4.0) in which luciferase mRNA (Fluc mRNA, TriLink) was dissolved were mixed in a volume ratio of 1:3 in a microchannel chip to prepare a crude solution of lipid nanoparticles, which was then dialyzed in 1×PBS at a controlled temperature of 4° C. for 6 h using a dialysis box (Fisher, MWCO 20,000) and filtered through a 0.22 μm microporous filter membrane before use. The mass ratio of the amino lipid compound to Fluc mRNA was about 10:1. The resultant solution of lipid nanoparticles (LNPs) was administered to the tested animals by subcutaneous administration.
Detection of encapsulation rate: the concentration of LNP RNA was detected by Qubit® RNA HS Assay kit. The theoretical RNA concentration was given by the total amount of RNA input divided by the total volume of the final solution.
(§2) The preparation method was the same as Formulation method 1, except that amino lipid compound, DSPC, cholesterol and PEG2000-DMG were used in a molar ratio of 50:10:38.5: 1.5. The resultant solution of lipid nanoparticles (LNPs) was administered to the tested animals by tail vein and intramuscular injection.
Regarding `CCCCCCCCCCCCCCCCSc1nc(NCCN2CCN(C)CC2)nc(SCCCCCCCCC)n1` [Compound S9S16D5], the Encapsulation rate is reported as 99.1%.

The data set is the same for the next values; noted with them: LNPs, Formulation method 2.
In turn, `CCCCCCCCCCCCCCCCSc1nc(NCCN2CCN(C)CC2)nc(SCCCCCCCCC)n1` [Compound S9S16D5] showed an Encapsulation rate of 99.6%.

Another data set deals with HEK293 cells. Nature of the data set: Preliminary screening as mRNA vectors, EGFP mRNA transfection of HEK293 cells. The format is cell-based. The settings on record: HEK293 cells, 96-well plates, EGFP mRNA 50 ng per well; percentage of GFP fluorescent cells relative to total number of cells (Hoechst). Summed up: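 Screening format: EGFP mRNA transfection (50 ng/well) into HEK293 in 10% FBS-supplemented DMEM. Percent green fluorescent cells, normalised to Hoechst nuclear count, gave the value; Lipofectamine2000 was the reference transfectant.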
`CCCCCCCCCCCCCCCCSc1nc(NCCN2CCN(C)CC2)nc(SCCCCCCCCC)n1` [Compound S9S16D5]: the “Absolute mRNA transfection efficiency in HEK293 cells” value turned out to be 47.8%.

Test system in a further data set: not listed separately
The data set is described as follows: Particle size and PDI of lipid nanoparticles (Nano-ZSZEN3600, Malvern). The format is physicochemical. The note with it: LNPs, Formulation Method 1. Here is the method:
as §1
Characterization of particle size: the particle size and PDI of the prepared lipid nanoparticles were determined by Nano-ZSZEN3600 (Malvern). 40 uL of LNP solution was taken for particle size measurement with circulation for three times, 30 s for each circulation.
as §2
Take `CCCCCCCCCCCCCCCCSc1nc(NCCN2CCN(C)CC2)nc(SCCCCCCCCC)n1` [Compound S9S16D5]: the PDI is 0.04.

The data set is the same for the next values; noted with them: LNPs, Formulation Method 1 (amino lipid:DOPE:cholesterol:PEG2000-DMG 45:10:42.5:2.5), Fluc mRNA.
In the case of `CCCCCCCCCCCCCCCCSc1nc(NCCN2CCN(C)CC2)nc(SCCCCCCCCC)n1` [Compound S9S16D5], the “Particle size (nm)” value is given as 152 ± 5 nm.

Staying with this data set, now noted: LNPs, Formulation method 2.
On to `CCCCCCCCCCCCCCCCSc1nc(NCCN2CCN(C)CC2)nc(SCCCCCCCCC)n1` [Compound S9S16D5], for which the PDI came out at 0.05.

The data set is the same for the next values; noted with them: LNPs, Formulation method 2 (amino lipid:DSPC:cholesterol:PEG2000-DMG 50:10:38.5:1.5), Fluc mRNA.
As to `CCCCCCCCCCCCCCCCSc1nc(NCCN2CCN(C)CC2)nc(SCCCCCCCCC)n1` [Compound S9S16D5], the “Particle size (nm)” value is given as 130 ± 5 nm.

A further data set relates to Hela cells. The data set is described as follows: Transfection of Hela cell line, mRNA vectors. The note with it: 50 ng EGFP mRNA per well. The format is cell-based. Summed up: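 HeLa cells in DMEM with 10% FBS transfected with 50 ng EGFP mRNA per well. Readout is percentage of GFP-positive cells among total cells counted by Hoechst nuclear stain; Lipofectamine2000 served as positive control.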
Take `CCCCCCCCCCCCCCCCSc1nc(NCCN2CCN(C)CC2)nc(SCCCCCCCCC)n1` [Compound S9S16D5]: the “Absolute mRNA transfection efficiency in Hela cells” value amounted to 11.7%.

The subject of the next data set is BALB/c mice. Nature of the data set: In vivo delivery of luciferase mRNA (Fluc mRNA) by lipid nanoparticles, in vivo imaging. The note with it: intramuscular administration, 0.5 mg/kg Fluc mRNA, after 12 hours. The protocol:
as §1, §2
Animal Preparation: 6-week aged female BALB/c mice weighed about 20 g were selected and fed in a SPF-grade feeding room. Animal tests were conducted strictly according to the guidelines of national health institutions and the requirements of animal ethics.
In vivo delivery: 9 mice were assigned randomly to each group, and the lipid nanoparticle solution was injected by three routes of administration, i.e., subcutaneous, intramuscular and tail vein injection at a dosage of 0.5 mg/kg Fluc mRNA (3 mice for each route of administration). After 12 hours, 200 μL of 10 mg/mL potassium salt of […] (PerkinElmer) was injected into each mouse through the tail vein. After 10 min, the mice were placed under an in vivo imaging system (IVIS-200, Xenogen) to observe the total fluorescence intensity of each mouse and take photographs for record. The expression intensity of Fluc mRNA delivered by representative amino lipid compounds through the three routes of administration are shown in Table 5-7. DLin-MC3 was used as control.
`CCCCCCCCCCCCCCCCSc1nc(NCCN2CCN(C)CC2)nc(SCCCCCCCCC)n1` [Compound S9S16D5]: the “Fluorescence intensity (expression intensity of Fluc mRNA)” value (“Fluorescence intensity” for short) is given as 5.2E+06.

Still in this data set, the particulars now being: subcutaneous administration, 0.5 mg/kg Fluc mRNA, after 12 hours.
As for `CCCCCCCCCCCCCCCCSc1nc(NCCN2CCN(C)CC2)nc(SCCCCCCCCC)n1` [Compound S9S16D5], the “Fluorescence intensity” value is 4.2E+07.

Staying with this data set, now noted: tail vein administration, 0.5 mg/kg Fluc mRNA, after 12 hours.
`CCCCCCCCCCCCCCCCSc1nc(NCCN2CCN(C)CC2)nc(SCCCCCCCCC)n1` [Compound S9S16D5]: the “Fluorescence intensity” value is 7.5E+06.
